Values of other authors, collected in patent publication US20220241167A1, “PRODUCT FOR TREATING KERATINOUS FIBERS, CONTAINING SILANES OF SPECIFIC FORMULAE” (Henkel AG & Co. KGaA, priority 2019, published 2022).

Conditions: for solubility in water: 25° C.

Structure (SMILES)	solubility in water (in words) (at 25° C.)	solubility in water
O=C([O-])C1=NN(c2ccc(S(=O)(=O)[O-])cc2)C(=O)C1N=Nc1ccc(S(=O)(=O)[O-])cc1.[Na+].[Na+].[Na+] (stereo not drawn) [Acid Yellow 23, trisodium salt of 4,5-dihydro-5-oxo-1-(4-sulfophenyl)-4-((4-sulfophenyl)azo)-1H-pyrazole-3-carboxylic acid]	highly soluble in water	–
O=S(=O)([O-])c1ccc(N=Nc2c(O)ccc3ccccc23)cc1.[Na+] [Acid Orange 7, sodium salt of 4-[(2-hydroxy-1-naphthyl)azo]benzene sulphonate]	–	more than 7 g/L
Nc1cc(S(=O)(=O)[O-])cc2cc(S(=O)(=O)[O-])c(N=Nc3ccccc3)c(O)c12.[Na+].[Na+] [Acid Red 33, diantrium salt of 5-amino-4-hydroxy-3-(phenylazo)-naphthalene-2,7-disulphonate]	–	about 2.5 g/L
